Results: patent publication US20110136862A1, “NOVEL TETRAMETHYL SUBSTITUTED PIPERIDINE DERIVATIVES AND THEIR USE AS MONOAMINE NEUROTRANSMITTER RE-UPTAKE INHIBITORS” (NEUROSEARCH A/S, priority 2008, published 2011)

Key:
Type in all cases: biochemical
[1] = biological target: T1, reuptake of serotonine (5-HT) in synaptosomes (Rattus norvegicus, UniProt P31652); test: Inhibition of 5-HT reuptake in synaptosomes; details: 3H-5-HT, read-out: 5-HT-uptake IC50
T1 construct: serotonine (5-HT) in synaptosomes; from tissue
T1 sequence (P31652 whole entry): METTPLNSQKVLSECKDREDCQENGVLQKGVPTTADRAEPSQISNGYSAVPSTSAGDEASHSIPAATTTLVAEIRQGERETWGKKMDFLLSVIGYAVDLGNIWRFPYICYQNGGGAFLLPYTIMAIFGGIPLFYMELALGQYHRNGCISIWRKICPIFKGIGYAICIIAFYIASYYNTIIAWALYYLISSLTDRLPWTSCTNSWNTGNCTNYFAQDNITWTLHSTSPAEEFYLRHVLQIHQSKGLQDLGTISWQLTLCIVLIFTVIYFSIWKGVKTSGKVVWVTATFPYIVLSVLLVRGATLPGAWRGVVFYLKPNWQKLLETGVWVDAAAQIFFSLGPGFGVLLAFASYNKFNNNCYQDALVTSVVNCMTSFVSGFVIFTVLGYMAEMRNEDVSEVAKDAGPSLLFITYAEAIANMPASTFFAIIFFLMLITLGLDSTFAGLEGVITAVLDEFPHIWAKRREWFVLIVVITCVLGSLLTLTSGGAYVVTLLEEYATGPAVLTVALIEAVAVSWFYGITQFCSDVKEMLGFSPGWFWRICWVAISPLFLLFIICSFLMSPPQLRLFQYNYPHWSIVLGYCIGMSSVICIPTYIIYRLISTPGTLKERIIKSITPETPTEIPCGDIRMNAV
Description: (§1) Compounds were tested for their ability to inhibit the reuptake of the monoamine neurotransmitters dopamine (DA) noradrenaline (NA) and serotonine (5-HT) in synaptosomes as described in WO 97/16451 (NeuroSearch A/S).
(§2) The test values are given as IC50 (the concentration (μM) of the test substance which inhibits the specific binding of ^3H-DA, ^3H-NA, or ^3H-5-HT by 50%).

[2] = biological target: T2, reuptake of dopamine (DA) in synaptosomes (Rattus norvegicus, UniProt P23977); test: Inhibition of DA reuptake in synaptosomes; details: 3H-DA, read-out: DA-uptake IC50
T2 construct: in synaptosomes as described in WO 97/16451; from tissue
T2 sequence (P23977 whole entry): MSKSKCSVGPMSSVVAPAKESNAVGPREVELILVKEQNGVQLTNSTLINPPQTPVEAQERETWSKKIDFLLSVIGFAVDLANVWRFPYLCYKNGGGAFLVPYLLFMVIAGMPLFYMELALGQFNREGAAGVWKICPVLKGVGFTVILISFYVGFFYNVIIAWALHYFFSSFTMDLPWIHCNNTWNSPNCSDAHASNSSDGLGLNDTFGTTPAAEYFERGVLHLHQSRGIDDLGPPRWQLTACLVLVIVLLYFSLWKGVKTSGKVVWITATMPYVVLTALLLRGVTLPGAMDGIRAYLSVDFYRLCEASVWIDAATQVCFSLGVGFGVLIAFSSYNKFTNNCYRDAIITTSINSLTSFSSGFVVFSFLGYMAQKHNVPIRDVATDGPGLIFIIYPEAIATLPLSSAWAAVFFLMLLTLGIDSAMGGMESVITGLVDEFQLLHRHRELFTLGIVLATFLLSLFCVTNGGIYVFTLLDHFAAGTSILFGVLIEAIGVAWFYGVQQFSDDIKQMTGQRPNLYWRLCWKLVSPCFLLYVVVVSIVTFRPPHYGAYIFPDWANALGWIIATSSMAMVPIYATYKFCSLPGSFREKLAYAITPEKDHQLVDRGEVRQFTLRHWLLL
Description: as §1, §2

[3] = biological target: T3, reuptake of noradrenaline (NA) in synaptosomes (Rattus norvegicus, UniProt Q63380); test: Inhibition of NA reuptake in synaptosomes; details: 3H-NA, read-out: NA-uptake IC50
T3 construct: in synaptosomes as described in WO 97/16451; from tissue
T3 sequence (Q63380 1-617): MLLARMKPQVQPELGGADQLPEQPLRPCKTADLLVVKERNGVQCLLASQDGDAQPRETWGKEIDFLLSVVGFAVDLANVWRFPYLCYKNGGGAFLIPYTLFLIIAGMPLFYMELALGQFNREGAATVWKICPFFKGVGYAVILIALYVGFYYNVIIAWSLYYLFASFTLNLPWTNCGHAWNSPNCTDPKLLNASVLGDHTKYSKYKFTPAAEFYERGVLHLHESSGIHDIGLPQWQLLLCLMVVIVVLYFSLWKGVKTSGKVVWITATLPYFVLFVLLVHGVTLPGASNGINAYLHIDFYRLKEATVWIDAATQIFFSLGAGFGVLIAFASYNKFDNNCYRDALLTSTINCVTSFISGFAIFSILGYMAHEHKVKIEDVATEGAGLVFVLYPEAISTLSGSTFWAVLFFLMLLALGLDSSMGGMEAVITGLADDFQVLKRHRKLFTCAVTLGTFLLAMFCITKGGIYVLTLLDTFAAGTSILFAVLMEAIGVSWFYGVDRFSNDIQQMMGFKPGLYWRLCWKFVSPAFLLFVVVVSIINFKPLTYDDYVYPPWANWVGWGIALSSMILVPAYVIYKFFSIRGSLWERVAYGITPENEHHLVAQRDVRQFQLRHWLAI
Description: as §1, §2

Structure (SMILES)	IC50 [1]	IC50 [2]	IC50 [3]
CC1(C)CC(Oc2ccc3cc(O)ccc3n2)CC(C)(C)N1 [2-(2,2,6,6-Tetramethyl-piperidin-4-yloxy)-quinolin-6-ol]	13 nM	78 nM	130 nM
CC1(C)CC(Oc2ccc3ccccc3n2)CC(C)(C)N1 [2-(2,2,6,6-Tetramethyl-piperidin-4-yloxy)-quinoline]	0.68 nM	180 nM	13 nM
